Data published in patent publication US6468522B1, “Controlled release of thioamide moiety-containing therapeutic agents” (priority 1999, dated 2002).

How the values were obtained:
[1] = Reductive release of drug from disulfide conjugate (DTT or glutathione, TLC); type: physicochemical; details: organic phase
Description: III Release of UC781 from mPEG-S—S-UC781. […] Then, 0.5 ml of 6 mM dithiothreitol (DTT) in DCM was added to the conjugate solution.
After 2 hours at room temperature, the reaction mixture was taken to dryness by speed vacuum.
In an alternate procedure to the above, cysteamine may be used in place of 1-amino-2-methyl-2-propanethiol, which produces a UC781 conjugate (PEG-CO—NH—CH2—CH2—S—S—UC781) with less sterically hindered thiol groups and therefore with a ˜100-fold faster release under reducing conditions.

[2] = Kinetics following intravenous injection of PEG-S-S-UC781 in rabbits; type: in vivo; details: rabbit
Description: The wavelength for detection of UC781 is 290 nm.
An in-vivo experiment was done in duplicate in rabbits (about 3.6 kg, New Zealand white, female), performed according to protocol #I99-054 approved by the IACUC of UMDNJ-Robert Wood Johnson Medical School. […] Blood samples were drawn from the auricular artery of the opposite ear prior to and at predetermined time points after injection. Immediately after the blood was drawn, 1 ml was mixed with 2 ml of acetonitrile, vortexed, kept on ice for 10 min and then centrifuged at 1000×g for 10 min at 4° C. The supernatant was collected and analyzed by reverse phase HPLC, as described above. Blood levels were determined with time by HPLC with and without the DTT reductive cleavage step (FIG. 7).

[3] = Kinetics following intramuscular injection of PEG-S-S-UC781 in mice; type: in vivo
Description: An in-vivo experiment was done twice in mice (about 25 g, […]), performed according to protocol #I00-001, approved by the IACUC. […] Twenty mg, equivalent to 0.5 mg of UC781, was dissolved in 1 ml of PBS and injected into the leg muscle. At each time point, a mouse was euthanized, blood was collected and the injected muscle was removed. The blood samples were treated with 2 volumes of acetonitrile as described above. The tissue samples were homogenized with 1 ml of PBS and then treated with 2 volumes of acetonitrile, as above. The samples were then analyzed by reverse phase HPLC. […] Recovery and extraction efficiency from the muscle was tested by injection into the excised muscle from a freshly euthanized mouse.

HIV-RT = HIV-RT (Human immunodeficiency virus type 1 group M subtype B, UniProt P03366); assay: Reverse transcriptase (RT) inhibition assay; type: biochemical; details: for UC781 concentration found by RT assay: predicted 30 nM
Description: UC781 standard solutions were prepared in DMSO. The stock solution of HIV-RT (13.5 Units/μl) was diluted to 25 mUnits/μl in buffer comprising 50 mM Tris-HCl, pH 8.0, 1 mM DTT, 0.01% bovine serum albumin (BSA). Each assay tube contained 40 μl of a solution comprising 50 mM Tris-HCl, pH 8.0, 4 mM DTT, 12.4 mM MgCl2, 50 mM KCl, 0.01% BSA, 10 μg/ml poly(A), 0.01 mM dTTP and […] [α-^32P]dTTP, 2 μl of diluted RT and 3 μl of sample dissolved in DMSO. Samples were incubated at 37° C. for 30 minutes. The polymerization reaction was stopped by adding 0.15 mg/ml of salmon sperm DNA and chilling on ice. An aliquot (20 μl) of each reaction mixture was spotted onto square stamped GF/C filter paper (12.5 cm in diameter) presoaked with 10% trichloroacetic acid (TCA). After the spots were dry, the paper was rinsed with 50 ml of ice cold 10% TCA twice, 50 ml of ice cold water three times and then once with 25 ml of ice cold 95% ethanol in a Buchner funnel. The paper was dried, cut into squares and each square was counted in 4 ml of LSC cocktail (National Diagnostics).
The reverse transcriptase inhibition (RT) assay was used to confirm that the compound released in blood is truly active UC781. […] As a control, authentic UC781 was run on the HPLC column and the peak was collected at 24.2 minutes. […] An aliquot of each HPLC fraction, providing a predicted concentration of 30 nM in the RT assay, was analyzed.

in vitro = details: rabbit
Description: UC781 was analyzed using an HPLC reverse phase column, PRP-1 (Hamilton, Reno, Nev.), under the following condition: mobile phase A: 20% acetonitrile, mobile phase B: 90% acetonitrile, flow rate: 1 ml/min. Gradient: 0-2 min, 100% A; 2-20 min, linear gradient from 100% A to 100% B; 20-28 min, 100% B; 28—30 min, linear gradient from 100% B to 100% A; 30-35 min, 100% A. Under these experimental conditions, the retention time for UC781 is 24.2 min. The wavelength for detection of UC781 is 290 nm.
To each 1 ml sample of EDTA-treated rabbit blood, 2 ml of acetonitrile was added, mixed and kept on ice for 10 min. The mixture was centrifuged at 1000×g for 10 min. The supernatant was collected and an aliquot (300 μl) was injected into the reverse phase column. […] After centrifugation, 400 μl of the supernatant was analyzed, either without or with DTT pretreatment (3 mM for 2 hours at room temperature).
However, prior reduction with DTT should give the total concentration of UC781 since the conjugated UC781 is converted into the free form prior to HPLC. […] Recovery through the extraction procedure was determined by spiking a known amount of either free or conjugated UC781 into EDTA-treated rabbit blood prior to acetonitrile extraction.

| release of drug from conjugate by DTT [1] | SMILES | UC781 concentration in plasma higher than in matched whole blood ([2]; EDTA-treated blood, duplicate sample) | half-life of UC781 in the bloodstream ([2]; after iv PEG-S-S-UC781) | level of UC781 in tissue samples ([3]; mouse injected muscle, after 1 hour) | UC781 in blood samples ([3]; mouse, im, HPLC) | UC781 concentration found by RT assay (HIV-RT; HPLC peak fraction of rabbit blood 5 min after iv PEG-S-S-UC781) | activity of compound recovered from blood (HIV-RT; RT assay, blood versus standard) | UC781 concentration found by RT assay (HIV-RT; authentic UC781 standard HPLC fraction) | recovery at 10 min, 10 µg/mL (in vitro) |
| --- | --- | --- | --- | --- | --- | --- | --- | --- | --- |
| reductively released | O=c1[nH]c(=S)ccn1[C@@H]1O[C@H](CO)[C@@H](O)[C@H]1O [4-thiouridine, 4-Thiouridine] |  |  |  |  |  |  |  |  |
|  | CC(C)=CCOc1cc(NC(=S)c2ccoc2C)ccc1Cl [UC781, N-[4-chloro-3-(3-methyl-2-butenyloxy)phenyl]-2-methyl-3-furancarbothioamide] | about 10% | several minutes | more than 10% | below the detection limit | 26 nM | fully active | 27 nM | 113% |
